Data on 3 compounds can be found in paper PMC9696794, “Synthesis and Antimicrobial Activity of Short Analogues of the Marine Antimicrobial Peptide Turgencin A: Effects of SAR Optimizations, Cys-Cys Cyclization and Lipopeptide Modifications” (International Journal of Molecular Sciences, 2022).

Converted amounts (≈) assume the structure as drawn. Where a SMILES comes first, the peptide text is derived from it. Bridges are numbered along the chain shown (N, C = ends). The star is where a group is joined. Lauroyl = CCCCCCCCCCCC(=O)*; Octanoyl = CCCCCCCC(=O)*

Experiment [1] relates to E. coli MC4100 (wild type, WT). As to the kind of experiment: microbe, parasite or virus in culture. The settings on record: for MIC E. coli MC4100 (WT): wild type. In outline:
(§1)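 Broth microdilution in Mueller–Hinton medium, 2.5–3 × 10^4 CFU/mL inoculum, two-fold peptide dilutions from 256 to 1 µg/mL, 35 °C with OD595 read hourly for 24 h. MIC is the lowest concentration giving OD below 10% of the untreated growth control; run in triplicate.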

Experiment [2] has as its system E. coli NR698 (outer membrane permeable mutant, imp4213). As to the kind of experiment: microbe, parasite or virus in culture. The settings on record: for MIC E. coli NR698 (mutant): MC4100 NR698 imp4213, deficient outer membrane. An outline of the steps: as §1
For experiment [3], the system named is S. epidermidis RP62A (Se, ATCC 35984). The experiment is described as follows: microbe, parasite or virus in culture. The format is cell-based, Staphylococcus epidermidis. To be noted: for Antimicrobial Activity (MIC) Gram + Se: ATCC 35984, 24 h. In outline: (§2)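 Cultures grown in Mueller–Hinton broth were adjusted by OD600 to 2.5–3 × 10^4 CFU/mL and mixed with two-fold peptide dilutions from 256 to 1 µg/mL. Plates were incubated at 35 °C with OD595 monitored every hour for 24 h.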

The test system of experiment [4] is C. albicans (Ca, ATCC 10231). As to the kind of experiment: microbe, parasite or virus in culture. The format is cell-based, Candida albicans. To be noted: for Antimicrobial Activity (MIC) Fungi Ca: ATCC 10231, 48 h. In outline: (§3)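 Overnight cultures in potato dextrose broth with 2% glucose at 25–30 °C were diluted to approx. 4 × 10^5 spores/mL and mixed 1:1 with two-fold peptide dilutions plated at 256 to 1 µg/mL. After 48 h at room temperature, OD600 was read. MIC was the lowest concentration giving OD below 10% of the growth control, in triplicate.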

Experiment [5] has as its system A. pullulans (Ap). The experiment is described as follows: microbe, parasite or virus in culture. The format is cell-based, Aurobasidium pollulans. To be noted: 48 h. In outline:
as §3

The test system of experiment [6] is C. glutamicum (Cg, ATCC 13032). The experiment is described as follows: microbe, parasite or virus in culture. The format is cell-based, Corynebacterium glutamicum. The settings on record: for Antimicrobial Activity (MIC) Gram + Cg: ATCC 13032, 24 h. In outline:
as §2

Experiment [7] has as its system S. aureus (Sa, ATCC 9144). As to the kind of experiment: microbe, parasite or virus in culture. The format is cell-based, Staphylococcus aureus. The settings on record: for Antimicrobial Activity (MIC) Gram + Sa: ATCC 9144, 24 h. An outline of the steps: as §2
Experiment [8] deals with Rhodotorula sp. (Rh). As to the kind of experiment: microbe, parasite or virus in culture. To be noted: 48 h. In kind it is cell-based. An outline of the steps: as §3
Experiment [9] deals with B. subtilis (Bs, ATCC 23857). As to the kind of experiment: microbe, parasite or virus in culture. The format is cell-based, Bacillus subtilis. To be noted: for Antimicrobial Activity (MIC) Gram + Bs: ATCC 23857, 24 h. An outline of the steps:
as §2

Experiment [10] has as its system all bacterial strains. As to the kind of experiment: Antibacterial MIC assay, all bacterial strains together (range or geometric mean). The format is cell-based. The settings on record: for GM (geometric mean of the MIC values against all bacterial strains): Table 1, six bacterial strains; for GM of MIC Tot. bact.: Table S3, all bacterial test strains, MIC >256 set to 256. In outline: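 Broth microdilution in Mueller–Hinton broth against B. subtilis, C. glutamicum, S. aureus, S. epidermidis RP62A, E. coli and P. aeruginosa; inoculum 2.5–3 × 10^4 CFU/mL, 35 °C, OD595 read hourly for 24 h. MIC: lowest peptide concentration giving OD below 10% of growth control; geometric mean across strains, triplicate.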

Turning to `[H]/N=C(\N/C(=N/[H])NCCCCCCNC(=N)NC(=N)Nc1ccc(Cl)cc1)Nc1ccc(Cl)cc1` [Chlorhexidine, reference compound], the MIC in experiment [1] (Escherichia coli, read-out: MIC E. coli MC4100 (WT)) was 0.3 µg/mL (≈ 0.594 µM); in [2] (Escherichia coli, read-out: MIC E. coli NR698 (mutant)), 0.3 µg/mL (≈ 0.594 µM); in [3] (Staphylococcus epidermidis, ATCC35984, S. epidermidis RP62A ATCC 35984, 24 h, read-out: Antimicrobial Activity (MIC) Gram + Se), 1.6 µg/mL; in [4] (Candida albicans, ATCC10231, C. albicans ATCC 10231, 48 h, read-out: Antimicrobial Activity (MIC) Fungi Ca), 7.8 µg/mL; in experiment [5] (Aureobasidium pullulans, A. pullulans, read-out: Antimicrobial Activity (MIC) Fungi Ap) it was 1 µg/mL; in [6] (Corynebacterium glutamicum, ATCC13032, C. glutamicum ATCC 13032, 24 h, read-out: Antimicrobial Activity (MIC) Gram + Cg), 0.8 µg/mL. Also, the MIC in experiment [7] (Staphylococcus aureus, ATCC9144, S. aureus ATCC 9144, 24 h, read-out: Antimicrobial Activity (MIC) Gram + Sa) came out at 1.6 µg/mL; in experiment [8] (Rhodotorula sp., read-out: Antimicrobial Activity (MIC) Fungi Rh), 1 µg/mL; in [9] (Bacillus subtilis, ATCC23857, B. subtilis ATCC 23857, 24 h, read-out: Antimicrobial Activity (MIC) Gram + Bs), 1.6 µg/mL; in experiment [10] (read-out: GM (geometric mean of the MIC values against all bacterial strains)), 20 µg/mL (≈ 39.6 µM).

With `CCCCCCCC(=O)N[C@H]1CSSC[C@@H](C(=O)N[C@@H](CCCCN)C(=O)N[C@@H](CC(C)C)C(N)=O)NC(=O)[C@H](CCCCN)NC(=O)[C@H](Cc2c[nH]c3ccccc23)NC(=O)CNC(=O)[C@H](Cc2c[nH]c3ccccc23)NC(=O)[C@H](Cc2c[nH]c3ccccc23)NC(=O)[C@H](CCCCN)NC(=O)[C@H](CCCCN)NC(=O)CNC1=O` [Peptide C8-cTurg-2, C8- (CGKKWWGWKC)KL-NH2] (Octanoyl-CGKKWWGWKCKL-NH2; disulfide 1-10), the “MIC E. coli MC4100 (WT)” value in [1] is 8 µg/mL (≈ 4.86 µM). Besides, the “MIC E. coli NR698 (mutant)” value in experiment [2] turned out to be 2 µg/mL (≈ 1.21 µM). Further, the “Antimicrobial Activity (MIC) Gram + Se” value in [3] is reported as 4 µg/mL. Further, the “Antimicrobial Activity (MIC) Fungi Ca” value in [4] is given as 32 µg/mL. In [5], the “Antimicrobial Activity (MIC) Fungi Ap” value was 16 µg/mL. For the same compound, in [6], the “Antimicrobial Activity (MIC) Gram + Cg” value was determined as 2 µg/mL. Further, the “Antimicrobial Activity (MIC) Gram + Sa” value in experiment [7] is given as 4 µg/mL. In addition, the “Antimicrobial Activity (MIC) Fungi Rh” value in experiment [8] is recorded as 4 µg/mL. Further, in experiment [9], the “Antimicrobial Activity (MIC) Gram + Bs” value turned out to be 2 µg/mL. In addition, in [10], the “GM (geometric mean of the MIC values against all bacterial strains)” value was 4 µg/mL and the “GM of MIC Tot. bact.” value is recorded as 4 µg/mL.

Consider `CCCCCCCCCCCC(=O)N[C@H]1CSSC[C@@H](C(=O)N[C@@H](CCCCN)C(=O)N[C@@H](CC(C)C)C(N)=O)NC(=O)[C@H](CCCCN)NC(=O)[C@H](Cc2c[nH]c3ccccc23)NC(=O)CNC(=O)CNC(=O)[C@@H]2CCCN2C(=O)[C@H](CCCCN)NC(=O)[C@H](CCCCN)NC(=O)CNC1=O` [Peptide C12-cTurg-1, C12 -(CGKKPGGWKC)KL-NH2] (Lauroyl-CGKKPGGWKCKL-NH2; disulfide 1-10), for which the “MIC E. coli MC4100 (WT)” value in experiment [1] was 4 µg/mL (≈ 2.7 µM). In addition, in experiment [2], the “MIC E. coli NR698 (mutant)” value was 2 µg/mL (≈ 1.35 µM). The “Antimicrobial Activity (MIC) Gram + Se” value in experiment [3] amounted to 4 µg/mL. Besides, the “Antimicrobial Activity (MIC) Fungi Ca” value in [4] was 64 µg/mL. The “Antimicrobial Activity (MIC) Fungi Ap” value in [5] stood at 32 µg/mL. Besides, in experiment [6], the “Antimicrobial Activity (MIC) Gram + Cg” value is recorded as 2 µg/mL. For the same compound, the “Antimicrobial Activity (MIC) Gram + Sa” value in [7] came out at 4 µg/mL. Moreover, in experiment [8], the “Antimicrobial Activity (MIC) Fungi Rh” value was 4 µg/mL. Besides, the “Antimicrobial Activity (MIC) Gram + Bs” value in experiment [9] was determined as 2 µg/mL. In experiment [10], the “GM (geometric mean of the MIC values against all bacterial strains)” value turned out to be 4 µg/mL and the “GM of MIC Tot. bact.” value is given as 4 µg/mL.
